Drawing on patent publication US7320992B2, “Substituted 2,3-dihydro-1h-isoindol-1-one derivatives and methods of use” (Amgen Inc., priority 2003, dated 2008), this text covers IC50 for ten compounds.

For the experiment, the system named is VEGF-stimulated HUVEC proliferation (Human Umbilical Vein Endothelial cells). Description: HUVEC Proliferation Assay. As to conditions: 72 h incubation, CyQuant readout, read-out: inhibited VEGF-stimulated HUVEC proliferation at a level (IC50). The format is cell-based. The procedure:
Human Umbilical Vein Endothelial cells are purchased from Clonetics, Inc., as cryopreserved cells harvested from a pool of donors. These cells, at passage 1, are thawed and expanded in EBM-2 complete medium, until passage 2 or 3. The cells are trypsinized, washed in DMEM+10% FBS+antibiotics, and spun at 1000 rpm for 10 min. Prior to centrifugation of the cells, a small amount is collected for a cell count. After centrifugation, the medium is discarded, and the cells are resuspended in the appropriate volume of DMEM+10% FBS+antibiotics to achieve a concentration of 3×10^5 cells/mL. Another cell count is performed to confirm the cell concentration. The cells are diluted to 3×10^4 cells/mL in DMEM+10% FBS+antibiotics, and 100 μL of cells are added to a 96-well plate. The cells are incubated at 37° C. for 22 h.
Prior to the completion of the incubation period, compound dilutions are prepared. Five-point, five-fold serial dilutions are prepared in DMSO, at concentrations 400-fold greater than the final concentrations desired. 2.5 μL of each compound dilution are diluted further in a total of 1 mL DMEM+10% FBS+antibiotics (400× dilution). Medium containing 0.25% DMSO is also prepared for the 0 μM compound sample. At the 22 h timepoint, the medium is removed from the cells, and 100 μL of each compound dilution is added. The cells are incubated at 37° C. for 2-3 h.
During the compound pre-incubation period, the growth factors are diluted to the appropriate concentrations. Solutions of DMEM+10% FBS+antibiotics, containing either VEGF or bFGF at the following concentrations: 50, 10, 2, 0.4, 0.08, and 0 ng/mL are prepared. For the compound-treated cells, solutions of VEGF at 550 ng/mL or bFGF at 220 ng/mL for 50 ng/mL or 20 ng/mL final concentrations, respectively, are prepared since 10 μL of each will be added to the cells (110 μL final volume). At the appropriate time after adding the compounds, the growth factors are added. VEGF is added to one set of plates, while bFGF is added to another set of plates. For the growth factor control curves, the media on wells B4-G6 of plates 1 and 2 are replaced with media containing VEGF or bFGF at the varying concentrations (50-0 ng/mL). The cells are incubated at 37° C. for an additional 72 h.
At the completion of the 72 h incubation period, the medium is removed, and the cells are washed twice with PBS. After the second wash with PBS, the plates are tapped gently to remove excess PBS, and the cells are placed at −70° C. for at least 30 min. The cells are thawed and analyzed using the CyQuant fluorescent dye (Molecular Probes C-7026), following the manufacturer's recommendations. The plates are read on a Victor/Wallac 1420 workstation at 485 nm/530 nm (excitation/emission). Raw data are collected and analyzed using a 4-parameter fit equation in XLFit. IC50 values are then determined.
For `CC(C)(C)c1ccc(N2Cc3cccc(NCc4ccncc4)c3C2=O)cc1` [Example 1, 2-(4-(1,1-Dimethylethyl)phenyl)-7-((4-pyridinylmethyl)amino)-2,3-dihydro-1H-isoindol-1-one], the IC50 is under 500 nM.
In the case of `CC(=O)N1CC(C)(C)c2ccc(N3Cc4cccc(NCc5ccncc5)c4C3=O)cc21` [Example 16, 2-(1-acetyl-3,3-dimethyl-2,3-dihydro-1H-indol-6-yl)-7-[(pyridin-4-ylmethyl)-amino]-2,3-dihydro-isoindol-1-one], the IC50 was under 500 nM.
The same measure for `CC1(C)CNc2cc(N3Cc4cccc(NCc5ccncc5)c4C3=O)ccc21` [Example 17]: under 500 nM.
In the case of `CC(C)(C)c1ccc(N2Cc3cccc(NCc4c[nH]c5ncccc45)c3C2=O)cc1` [Example 32, 2-(4-tert-butyl-phenyl)-7-[(1H-pyrrolo [2,3-b]pyridin-3-ylmethyl)-amino]-2,3-dihydro-isoindol-1-one], the IC50 is under 500 nM.
In the case of `CC(C)(C)c1ccc(N2Cc3ccnc(NCc4ccnc(N)c4)c3C2=O)cc1` [Example 83, 4-[(2-amino-pyridin-4-ylmethyl)-amino]-2-(4-tert-butyl-phenyl)-1,2-dihydro-pyrrolo[3,4-c]pyridin-3-one] it was under 500 nM; in that of `CC1(C)CNCc2cc(N3Cc4cccc(NCc5c[nH]c6ncccc56)c4C3=O)ccc21` [Example 35], under 500 nM; in that of `CC1(C)CNCc2cc(N3Cc4cccc(NCc5ccc6ncccc6c5)c4C3=O)ccc21` [Example 64, 2-(4,4-Dimethyl-1,2,3,4-tetrahydro-isoquinolin-7-yl)-7-[(quinolin-6-ylmethyl)-amino]-2,3-dihydro-isoindol-1-one], under 500 nM.
As for `CC(C)(C)c1cc(N2Cc3cccc(NCc4ccncc4)c3C2=O)[nH]n1` [Example 46, 2-(5-tert-butyl-2H-pyrazol-3-yl)-7-[(pyridin-4-ylmethyl)-amino]-2,3-dihydro-isoindol-1-one], the IC50 was under 500 nM.
The same measure for `CC1(C)CNCc2cc(N3Cc4cccc(NCc5ccncc5)c4C3=O)ccc21` [Example 20]: under 500 nM; for `CC(C)(C)c1ccc(N2Cc3ccnc(NCc4ccncc4)c3C2=O)cc1` [Example 80, 2-(4-tert-butyl-phenyl)-4-[(pyridin-4-ylmethyl)-amino]-1,2-dihydro-pyrrolo[3,4-c]pyridin-3-one]: under 500 nM.
